Assay results from patent US20250296938A1, “Compounds that Interact with the Ras Superfamily for the Treatment of Cancers, Inflammatory Diseases, Rasopathies, and Fibrotic Disease” (SHY Therapeutics, LLC, priority 2018, published 2025).
Like-named read-outs stand apart in the source and are kept apart here.

How the values were obtained:
Experiment in all cases: Ras GTP binding domain inhibition assay (Cy3-GTP/Cy5-GTP competition)
[1] = molecular target: T1, KRas G12D mutant (Homo sapiens, UniProt P01116, G12D); settings: at 20 μM
T1 construct: fused on or other part: His tag, used for capture on nickel-coated plates
Method in brief: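 Ni-plate immobilised His-Ras, overnight 4 °C; cpd 20 μM (or dilution series for IC50), 1% DMSO, 3 h RT; optional His-Sos […] last hour; Cy3- or Cy5-GTP 100 nM, 45 min RT; 3× wash; bound fluorescence read.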

[2] = molecular target: Rho-A (Homo sapiens, UniProt P61586)
Method in brief: (§1)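 Compounds tested at 20 μM or in serial dilution for IC50 against nickel-captured His-tagged GTPase, 3 hours at room temperature, with or without His-Sos GEF added for last hour. Fluorescent GTP then added at 100 nM for 45 minutes; wells washed, bound label measured by fluorescence.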

[3] = molecular target: Rac-1 (Homo sapiens, UniProt P63000)
Method in brief: as §1

[4] = with SOS, read-out: KRas G12D mutant + SOS: % inh.
[5] = without SOS, read-out: KRas G12D mutant: % inh.
[6] = with SOS, read-out: Rho-A + SOS: % inh.
[7] = without SOS, read-out: Rho-A: % inh.
[8] = with SOS, read-out: Rac-1 + SOS: % inh.
[9] = without SOS, read-out: Rac-1: % inh.

Compound	inhibition at 20 µM [1, 4]	inhibition at 20 µM [1, 5]	inhibition at 20 µM [2, 6]	inhibition at 20 µM [2, 7]	inhibition at 20 µM [3, 8]	inhibition at 20 µM [3, 9]	KRas G12D mutant + SOS: % inh. ([1]; with SOS)	KRas G12D mutant: % inh. ([1]; without SOS)	Rho-A + SOS: % inh. ([2]; at 20 μM, with SOS)	Rho-A: % inh. ([2]; at 20 μM, without SOS)	Rac-1 + SOS: % inh. ([3]; at 20 μM, with SOS)	Rac-1: % inh. ([3]; at 20 μM, without SOS)
COCC(C)Nc1nc(-c2nccn2C)nc2sc(-c3ccn(C)n3)c(-c3ccc(OC)cc3)c12 (stereo not drawn) [drawing 1004]	1 to 25%	0%	1 to 25%	1 to 25%	0%	0%	–	–	–	–	–	–
COCCCNc1nc(-c2nccn2C)nc2sc(-c3ccn(C)n3)c(-c3ccc(OC)cc3)c12 [drawing 1005]	1 to 25%	0%	51 to 75%	1 to 25%	0%	0%	–	–	–	–	–	–
COCCNc1nc(-c2nccn2C)nc2sc(-c3cc(OC)ccc3Cl)c(-c3ccccc3)c12 [drawing 1006]	1 to 25%	26 to 50%	51 to 75%	1 to 25%	26 to 50%	1 to 25%	–	–	–	–	–	–
COCCNc1nc(-c2nccn2C)nc2sc(-c3cccc(OC)c3Cl)c(-c3ccccc3)c12 [drawing 1007]	76 to 100%	1 to 25%	51 to 75%	51 to 75%	26 to 50%	51 to 75%	–	–	–	–	–	–
COCCNc1nc(-c2cn(C)cn2)nc2sc(-c3ccccc3Cl)c(-c3ccc(OC)cc3)c12 [drawing 1008]	76 to 100%	26 to 50%	0%	0%	26 to 50%	26 to 50%	–	–	–	–	–	–
COCCNc1nc(-c2nccn2C)nc2sc(-c3cccc(OC)c3Cl)c(-c3ccc(OC)cc3)c12 [drawing 1009]	51 to 75%	1 to 25%	26 to 50%	26 to 50%	51 to 75%	26 to 50%	–	–	–	–	–	–
COCCNc1nc(-c2nccn2C)nc2sc(-c3cccc(OC)c3)c(-c3ccc(OC)cc3)c12 [drawing 1010]	76 to 100%	51 to 75%	0%	0%	26 to 50%	1 to 25%	–	–	–	–	–	–
COCCNc1nc(-c2nccn2C)nc2sc(-c3ccccc3Cl)c(-c3ccc(OC)cc3)c12 [drawing 1011]	76 to 100%	26 to 50%	0%	0%	26 to 50%	1 to 25%	–	–	–	–	–	–
COCCNc1nc(-c2nccn2C)nc2sc(-c3cc(OC)ccc3Cl)c(-c3ccc(OC)cc3)c12 [drawing 1012]	26 to 50%	1 to 25%	1 to 25%	26 to 50%	1 to 25%	1 to 25%	–	–	–	–	–	–
COc1cccc(-c2csc3c(O)nc(-c4nccn4C)nc23)c1Cl [drawing 1013]	1 to 25%	1 to 25%	1 to 25%	1 to 25%	26 to 50%	1 to 25%	–	–	–	–	–	–
COc1c(O)nc(-c2ccccn2)nc1Oc1ccc(C(=O)N(C)C)cc1 [drawing 1014]	26 to 50%	51 to 75%	51 to 75%	51 to 75%	51 to 75%	51 to 75%	–	–	–	–	–	–
COc1c(O)nc(-c2ccccn2)nc1Nc1ccccc1 [drawing 1015]	26 to 50%	26 to 50%	51 to 75%	51 to 75%	51 to 75%	51 to 75%	–	–	–	–	–	–
CCn1cc(Nc2nc(-c3ccccn3)nc(O)c2OC)cn1 [drawing 1016]	26 to 50%	26 to 50%	51 to 75%	51 to 75%	76 to 100%	51 to 75%	–	–	–	–	–	–
CCOc1cccc(Nc2nc(-c3ccccn3)nc(O)c2OC)c1 [drawing 1017]	26 to 50%	51 to 75%	51 to 75%	51 to 75%	76 to 100%	76 to 100%	–	–	–	–	–	–
COc1c(F)cccc1-c1sc2nc(-c3nccn3C)nc(NC3CCC(OC)C3)c2c1-c1ccccc1 (stereo not drawn) [drawing 1021]	1 to 25%	1 to 25%	26 to 50%	26 to 50%	51 to 75%	26 to 50%	–	–	–	–	–	–
COc1cccc(-c2sc3nc(-c4nccn4C)nc(N4CCC(OC)C4)c3c2-c2ccccc2)c1F (stereo not drawn) [drawing 1025]	–	–	–	–	–	–	C (51-75% inhibition)	A (1-25% inhibition)	B (26-50% inhibition)	B (26-50% inhibition)	B (26-50% inhibition)	B (26-50% inhibition)
COc1cccc(-c2sc3nc(-c4nccn4C)nc(N[C@H]4C[C@@H](OC)C4)c3c2-c2ccccc2)c1F [drawing 1026]	51 to 75%	26 to 50%	51 to 75%	51 to 75%	51 to 75%	51 to 75%	–	–	–	–	–	–
CO[C@H]1C[C@@H](Nc2nc(-c3nccn3C)nc3sc(-c4cnn(C)c4)c(-c4ccccc4)c23)C1 [drawing 1027]	76 to 100%	51 to 75%	76 to 100%	76 to 100%	76 to 100%	76 to 100%	–	–	–	–	–	–
COc1cccc(-c2sc3nc(-c4nccn4C)nc(NC4CCC(OC)C4)c3c2C)c1F (stereo not drawn) [drawing 1028]	51 to 75%	76 to 100%	76 to 100%	76 to 100%	51 to 75%	51 to 75%	–	–	–	–	–	–
COC1CCC(Nc2nc(-c3nccn3C)nc3sc(-c4cccc5[nH]ncc45)c(C)c23)C1 (stereo not drawn) [drawing 1030]	51 to 75%	26 to 50%	26 to 50%	51 to 75%	51 to 75%	51 to 75%	–	–	–	–	–	–
COCCn1ccnc1-c1nc(O)c2scc(-c3ccc(OCC(C)C)nc3)c2n1 [drawing 1033]	51 to 75%	51 to 75%	76 to 100%	76 to 100%	76 to 100%	76 to 100%	–	–	–	–	–	–
CC(C)COc1ccc(-c2csc3c(O)nc(-c4nccn4Cc4ccccn4)nc23)cn1 [drawing 1034]	51 to 75%	76 to 100%	76 to 100%	76 to 100%	76 to 100%	76 to 100%	–	–	–	–	–	–
COc1cccc(Cn2ccnc2-c2nc(O)c3scc(-c4ccc(OCC(C)C)nc4)c3n2)c1 [drawing 1035]	51 to 75%	51 to 75%	51 to 75%	76 to 100%	76 to 100%	76 to 100%	–	–	–	–	–	–
CO[C@H]1CC[C@@H](Nc2nc(-c3nccn3C)nc(C(=O)N3CCc4c(O)cccc4C3)c2C)C1 [drawing 1036]	26 to 50%	26 to 50%	76 to 100%	51 to 75%	51 to 75%	51 to 75%	–	–	–	–	–	–
Cn1ccc(-c2sc3nc(-c4nccn4C)nc(O)c3c2-c2ccccc2)n1 [drawing 1039]	26 to 50%	26 to 50%	26 to 50%	26 to 50%	26 to 50%	26 to 50%	–	–	–	–	–	–
